The record followed here is EP4613859A1, “TLR SIGNALING INHIBITORY PEPTIDE AND COMPOSITION INCLUDING SAME FOR PREVENTION OR TREATMENT OF INFLAMMATORY DISEASES” (Korea Institute of Science and Technology, priority 2022, dated 2025).

One test concerns human MYD88. Description: Phage display screening of TIR domain-derived peptide library against immobilized MyD88, NGS analysis after four rounds. In kind it is binding. As to conditions: for NGS count: phages remaining after fourth round. As for the experimental part: (§1) First, vector cloning was performed by synthesizing a DNA sequence for expressing each peptide belonging to the library constructed in Example 1. Vector cloning was performed using p3/p8 phagemids.
(§2) After the fourth round, the remaining phages were obtained by binding to the finally immobilized target proteins, and peptide sequences binding to the target and the relative distribution of each sequence were confirmed by performing NGS analysis on phagemids in the phages.

For the next test, the system named is human MAL. Briefly: Phage display screening of TIR domain-derived peptide library against immobilized MAL, NGS analysis after four rounds. Type of test: binding. As to conditions: for NGS count: phages remaining after fourth round. On the procedure: as §1, §2
Where [1] appears, read: P3_MyD88: library displayed on P3 coat protein.
The mark [2] stands for this setting: P3_MyD88: relative distribution of the sequence in NGS.
Where [3] appears, read: P8_MAL: library displayed on P8 coat protein.
[4] abbreviates: P3_MAL: library displayed on P3 coat protein.
Where [5] appears, read: P3_MAL: relative distribution of the sequence in NGS.
Setting [6] is: P8_MyD88: library displayed on P8 coat protein.
Where [7] appears, read: P8_MyD88: relative distribution of the sequence in NGS.
The mark [8] stands for this setting: P8_MAL: relative distribution of the sequence in NGS.

In the test with human MYD88 (setting [1]), PEKDNGGENAFINNIV returned an NGS count of 2498. The sequence also had a Population with human MYD88 (setting [2]) of 0.73%.
In the test on human MAL (setting [3]), KLIQGWFLYRLLKIEQ gave an NGS count of 2068.
In turn, RGFLSHLRHHLQAKDH yielded an NGS count in the test with human MAL (setting [4]) of 15065. In addition, the Population in the test on human MAL (setting [5]) turned out to be 5.66%.
IDDDHLTYLVRLLLSR had an NGS count in the test with human MYD88 (setting [6]) of 3059. In the test on human MYD88 (setting [7]), the Population came out at 1.18%.
With YASYDDNDYYWVTHVLLRHL, the NGS count in the test on human MYD88 (setting [6]) stood at 5893. Further, in the test with human MYD88 (setting [7]), the Population stood at 2.66%.
As for AFFWAQLKSVLGNPTM, the NGS count with human MAL (setting [3]) worked out at 28801. The sequence further came in with a Population with human MAL (setting [8]) of 8.90%.
As to VQWDDPWFWDKLAYAM, the NGS count in the test on human MYD88 (setting [6]) was determined as 4902. Besides, the Population with human MYD88 (setting [7]) is on record as 1.89%.
The sequence SENYATSPWALDELVL gave an NGS count with human MYD88 (setting [1]) of 5494. The sequence also yielded a Population in the test on human MYD88 (setting [2]) of 1.89%.
Regarding SLRKNLVSNLIEEFKR, the NGS count with human MAL (setting [4]) turned out to be 3569. For the same sequence, in the test with human MAL (setting [5]), the Population came out at 1.34%.
DFLNWFIALKSTVIEN had an NGS count in the test with human MAL (setting [3]) of 867.
In the test on human MAL (setting [4]), PNLRTKVLNYLMRTKT yielded an NGS count of 26931. In the test with human MAL (setting [5]), the Population was 10.12%.
WFYERLVSLILRDTKV yielded an NGS count in the test with human MAL (setting [3]) of 79000. Moreover, the Population with human MAL (setting [8]) was 24.40%.
Take WFLFTVRSAIYAMSPA: the NGS count in the test on human MAL (setting [3]) is 3156. This sequence displayed a Population in the test with human MAL (setting [8]) of 0.97%.
On to DPQDLQWFYERLVSLI, for which the NGS count in the test on human MYD88 (setting [6]) was determined as 5730. The sequence further registered a Population with human MYD88 (setting [7]) of 2.21%.
HQAFWNRLWAKLKPPT returned an NGS count with human MAL (setting [4]) of 1932. In the test on human MAL (setting [5]), the Population stood at 0.73%.
The sequence DPQDLDWFYERLVSLF had an NGS count with human MYD88 (setting [6]) of 54757. The Population with human MYD88 (setting [7]) is given as 21.10%.
Sequence YLISYIFNELARAGFS registered an NGS count in the test with human MAL (setting [3]) of 295. In addition, the Population in the test with human MAL (setting [8]) is on record as 0.09%.
PSEVRKQTGSLAKAFA registered an NGS count with human MYD88 (setting [1]) of 2253. Also, the Population in the test on human MYD88 (setting [2]) is 0.66%.
In the test with human MAL (setting [3]), KLFWEKFKEFFLPSLSR showed an NGS count of 4888. In the test on human MAL (setting [8]), this sequence returned a Population of 1.51%.
SAAYDDFWDRLIRMIE displayed an NGS count with human MYD88 (setting [6]) of 5335. In addition, in the test with human MYD88 (setting [7]), the Population was determined as 2.06%.
AVDKETDKIQTPLKNA returned an NGS count with human MYD88 (setting [1]) of 4790. The sequence further displayed a Population in the test with human MYD88 (setting [2]) of 1.39%.
The sequence SLLYDHLRWLGIRAFL had an NGS count in the test with human MAL (setting [3]) of 2576. The sequence further returned a Population with human MAL (setting [8]) of 0.80%.
With TSHLHHALRLNKIETF, in the test with human MYD88 (setting [1]), the NGS count is on record as 2076. In the test on human MYD88 (setting [2]), this sequence yielded a Population of 0.60%.
The sequence NGHESEIIKEIVDTIV came in with an NGS count with human MYD88 (setting [1]) of 4233. The sequence also gave a Population with human MYD88 (setting [2]) of 1.23%.
Regarding DWVWEHFFPMEEKDQT, the NGS count in the test with human MYD88 (setting [6]) is given as 1538. The Population with human MYD88 (setting [7]) is listed as 0.59%.
Take YASSSWALDELLRILY: the NGS count in the test with human MYD88 (setting [6]) came to 2327. Also, in the test on human MYD88 (setting [7]), the Population was 0.90%.
For the sequence WALDELLQILHARELF, the NGS count with human MYD88 (setting [6]) stood at 14404. The Population in the test on human MYD88 (setting [7]) amounted to 5.55%.
As for LFFWESLKQLLRSDGR, the NGS count in the test with human MAL (setting [3]) is 22560. This sequence also registered a Population in the test with human MAL (setting [8]) of 5.97%.
Turning to GLSWGPYEWWMGLYDA, the NGS count with human MYD88 (setting [6]) turned out to be 1965. Besides, the Population in the test with human MYD88 (setting [7]) worked out at 0.76%.
For RLLKWKEALHQFHSWV, the NGS count in the test with human MAL (setting [4]) is on record as 14924. Further, the Population in the test with human MAL (setting [5]) worked out at 5.61%.
With FLSYRALEKRFGPIGQ, the NGS count in the test on human MYD88 (setting [1]) worked out at 3289. This sequence also yielded a Population in the test with human MYD88 (setting [2]) of 0.96%.
As to LGYHWIDWEYFVGIED, in the test with human MYD88 (setting [6]), the NGS count is 25216. In the test on human MYD88 (setting [7]), this sequence had a Population of 9.72%.
As for YFLHFLLFSRPETEYI, the NGS count in the test with human MAL (setting [3]) was 17198. In addition, in the test with human MAL (setting [8]), the Population is 5.31%.
For TFLGHLYNALVQAGIH, in that order: 24732 and 7.64%.
For SEFIQKIILWMNPKIV, in that order: 4458 and 1.38%.
SELRVVDDGSVSPLEM: the NGS count in the test on human MYD88 (setting [1]) came out at 4872. The same sequence gave a Population in the test on human MYD88 (setting [2]) of 1.42%.
The sequence DPQDLEWFYERLFSQM gave an NGS count with human MYD88 (setting [6]) of 4488. Besides, the Population in the test with human MYD88 (setting [7]) was found to be 1.73%.
Sequence AFFWEQLRTVLGKPTM gave an NGS count with human MAL (setting [3]) of 11826. In addition, the Population with human MAL (setting [8]) came out at 3.65%.
LEANDSLFWDRLLYSL: the NGS count in the test with human MYD88 (setting [6]) turned out to be 1465. In the test on human MYD88 (setting [7]), this sequence had a Population of 0.56%.
Regarding KWFWDKLIYALSRNPH, the NGS count in the test on human MAL (setting [4]) is recorded as 2796. The Population in the test with human MAL (setting [5]) is on record as 1.05%.
In the case of DYASSTWWLRELLQIA, the NGS count with human MYD88 (setting [6]) amounted to 4111. The sequence also yielded a Population in the test on human MYD88 (setting [7]) of 1.58%.
KMQKWKDALYEAANLS: the NGS count with human MAL (setting [4]) is listed as 4427. Also, the Population in the test on human MAL (setting [5]) was 1.66%.
For WALQELVKILQAKIFL, the NGS count in the test with human MAL (setting [3]) was determined as 227. In the test on human MAL (setting [8]), the Population is given as 0.07%.
YLRADDSWFWEKLLYA returned an NGS count in the test with human MYD88 (setting [6]) of 4067. In the test with human MYD88 (setting [7]), the Population came to 1.57%.
AWALHQLQQIINWHET: the NGS count with human MAL (setting [3]) is 232. Besides, the Population in the test on human MAL (setting [8]) was determined as 0.07%.
Regarding AYANFRQGLLRLLELA, the NGS count in the test on human MAL (setting [3]) was 466.
DWFLSKLSQHILKREK registered an NGS count in the test with human MAL (setting [4]) of 4580. The sequence also came in with a Population in the test on human MAL (setting [5]) of 1.72%.
The sequence RNFVAYLFQALANKGI displayed an NGS count in the test on human MAL (setting [3]) of 27950. Also, the Population in the test with human MAL (setting [8]) turned out to be 8.63%.
In turn, YYLDPSHLRKQSGEFG returned an NGS count with human MYD88 (setting [1]) of 2538. In addition, the Population with human MYD88 (setting [2]) is 0.74%.
In the test on human MYD88 (setting [1]), YTALTNSGFHTFRDND yielded an NGS count of 17600. In addition, in the test on human MYD88 (setting [2]), the Population is reported as 5.12%.
Take DWVWDYLLPNLEGPAG: the NGS count with human MYD88 (setting [6]) was determined as 19394. Besides, in the test with human MYD88 (setting [7]), the Population stood at 7.47%.
In turn, HFFWIQLKSILGETSF returned an NGS count in the test with human MAL (setting [3]) of 3624. In the test with human MAL (setting [8]), the Population was found to be 1.12%.
For AFLYTFLINLTHPTNF, in that order: 51063 and 18.86%.
As for WFLTAFRMAMDQVADT, the NGS count in the test on human MAL (setting [3]) is listed as 353.
On the same count and under the same terms, then KFIWDIINAISSQIRV, with 146.
YLLLSVFQTIFARRTE had an NGS count with human MYD88 (setting [6]) of 7165. The sequence also returned a Population with human MYD88 (setting [7]) of 2.76%.
Taken in the same sequence, the figures for WALDELLKILYANETM were 10515 and 4.05%.
The sequence DSLFWDRLLYSLHVTE yielded an NGS count in the test with human MYD88 (setting [6]) of 7586. In the test on human MYD88 (setting [7]), the Population was 2.92%.
As for HLLKEFDKKLITAFKD, the NGS count with human MYD88 (setting [1]) is given as 2399. Also, the Population in the test with human MYD88 (setting [2]) is recorded as 0.70%.
For the sequence WDFASNMEQFWDRLYY, the NGS count in the test on human MYD88 (setting [6]) is reported as 7352. Further, in the test on human MYD88 (setting [7]), the Population is 2.83%.
On to RKGDLISDELLIAIEE, for which the NGS count with human MYD88 (setting [1]) was found to be 2452. Also, the Population in the test on human MYD88 (setting [2]) was found to be 0.71%.
Consider VANILGYHWIDWEYFV, for which, in the test on human MYD88 (setting [6]), the NGS count is listed as 2029. Also, the Population in the test on human MYD88 (setting [7]) is 0.78%.
SPQEQDGFWVRLIEAL: the NGS count in the test on human MYD88 (setting [6]) amounted to 1842. For the same sequence, the Population in the test on human MYD88 (setting [7]) is recorded as 0.71%.
For MFGGDTFHDFLDLISM, in that order: 1489 and 0.57%.
In turn, DPQDLDWFYERLVSLL returned an NGS count with human MYD88 (setting [6]) of 13137. In addition, in the test on human MYD88 (setting [7]), the Population was found to be 5.06%.
Taken in the same sequence, the figures for HWIDWEYFVGIEDHIK were 3422 and 1.32%.
As to YAASPWWFDELVKIVG, the NGS count in the test on human MYD88 (setting [6]) is reported as 3433. The sequence further came in with a Population with human MYD88 (setting [7]) of 1.32%.
PQDLEWFYERLVSLIL: in the test on human MYD88 (setting [6]), the NGS count amounted to 10568. The same sequence displayed a Population in the test with human MYD88 (setting [7]) of 4.07%.
